The text below walks through data of publication PMC10788912 (Journal of Medicinal Chemistry, 2023).

In test [1] the test system is human skin melanoma cells A375. Put plainly: Phototoxicity testing, MTT assay, A375. It is filed as cell-based. The note with it: MTT 72 h. As to the method:
(§1) The cells were treated with tested compounds diluted in Earle’s balanced salt solution (EBSS) for 1 h in the dark to allow the complexes to penetrate the cells. Afterward, the cells were irradiated for 1 h with blue light (LZC-4 photoreactor equipped with 16 lamps LZC-420, λmax = 420 nm) or sham irradiated. EBSS containing an Ir complex was then removed, and cells were incubated in the complete, drug-free Dulbecco’s modified Eagle’s medium (DMEM).
(§2) The metabolic activity of the cells (proportional to number of viable cells) was determined 72 h after irradiation using the standard 3-[4,5-dimethylthiazol-2-yl]-2,5 diphenyl tetrazolium bromide (MTT) assay. […] For comparative purposes (and at the reviewer’s request), the clinically used metallodrug cisplatin was included in the experiment.
(§3) The phototoxic potency of Ir complexes 1–4 was determined against human cancer Hela, A375, and HCT116 cell lines. Cells were seeded on 96-well tissue culture plates at a density of 5 × 10^3 cells/well in 100 μL of complete DMEM medium and cultured overnight in a humidified incubator. […] The number of cells was determined using a standard MTT or SRB assay. […] The phototoxic index (PI) was calculated as a ratio of IC50 (dark)/IC50 (irradiated).

Test [2] relates to human colon adenocarcinoma HCT116 cells. Description: Phototoxicity testing, MTT assay, HCT116. The following applies: MTT 72 h. The test is classed as cell-based. As to the method:
as §1, §2, §3

In test [3] the test system is human lung fibroblast MRC5 cells. Put plainly: Long-term dark effect on noncancerous cells, MTT, MRC5. It is filed as cell-based. The following applies: continuous exposure 48 h. As to the method:
The low toxicity of nonirradiated Ir complexes toward human noncancerous cells was confirmed by the fact that their effect was very low or even undetectable during long-term exposure when the human primary prostate epithelial hTERT EP156T and human lung fibroblast MRC5 cells were exposed to the complexes continuously for 48 h (Table 2).
After the period of incubation, an MTT assay was performed and evaluated.

Test [4] deals with human cervix adenocarcinoma (HeLa) cells. Put plainly: Phototoxicity testing, MTT assay, HeLa. The test is classed as cell-based. On the procedure: as §1, §2
Therefore, the photoactivation of Ir2 was tested also using a green (λmax = 545 nm) or red (λmax = 613 nm) light irradiation. For this experiment, samples were irradiated with a visible cool white lamp (LZC-Vis, Luzchem), and the appropriate green or red filter was applied; spectral characteristics can be seen in Figure S58.
The phototoxic potency of Ir complexes 1–4 was determined against human cancer Hela, A375, and HCT116 cell lines. […] The number of cells was determined using a standard MTT or SRB assay. […] The phototoxic index (PI) was calculated as a ratio of IC50 (dark)/IC50 (irradiated).

For test [5], the system named is caspase-3 in HeLa cells. Description: Caspase-3/7 activity assay. It is filed as cell-based, human. The note with it: equitoxic concentrations, 1 h dark, 1 h irradiation 420 nm, 2 h recovery. As to the method: Figure 7 and Figure S59 show the morphological alteration observed 2 h after the HeLa cells were treated with Ir complexes 1–4 at their equitoxic concentrations (IC50,72h) and irradiated. […] The whole cells were swollen and rounded (Figure 7B–E). A significant cytoplasm blebbing was evident in the early stages of the process (Figure 7F). The bubbles around the cells were completely clean inside (Figure 7F), distinguishing them from the budding process typical of apoptosis.
The activation of caspase-3 was detected using CellEvent Caspase-3/7 Green - Active Caspase-3/7 Assay Kit (Thermo Fisher Scientific). Briefly, HeLa cells were seeded at a 6-well plate at 3 × 10^5 cells/well density and treated and irradiated as described above (1 h preincubation in the dark, 1 h irradiation at 420 nm). After 2 h of recovery in compound-free media, cells were stained with the CellEventCaspase 3/7 Green Detection Reagent according to the manufacturer’s protocol, and the fluorescence signal was analyzed by flow cytometry.

Like-named read-outs stand apart in the source and are kept apart here.

Consider `N.N.[Cl][Pt][Cl]` [cisPt, cisplatin], for which the 50% inhibitory concentration (IC50) in test [1] (blue light 1 h, λmax = 420 nm, 58 ± 2 W m–2, read-out: IC50 A375 irrad) is 15 ± 2 µM; in test [1] (sham irradiated, read-out: IC50 A375 sham irrad), 14 ± 1 µM; in test [2] (blue light 1 h, λmax = 420 nm, 58 ± 2 W m–2, read-out: IC50 HCT116 irrad), 27 ± 7 µM; in test [2] (sham irradiated, read-out: IC50 HCT116 sham irrad), 19 ± 4 µM; in test [3], 6 ± 0.7 µM; in test [4] (1 h dark, then blue light 1 h, λmax = 420 nm, 58 ± 2 W m–2, MTT 72 h after irradiation, read-out: IC50 HeLa irrad), 27 ± 3 µM. In addition, in test [4] (sham irradiated, MTT 72 h, read-out: IC50 HeLa sham irrad), the IC50 was found to be 23 ± 4 µM.
Regarding `CN[C@@H]1C[C@H]2O[C@@](C)([C@@H]1OC)n1c3ccccc3c3c4c(c5c6ccccc6n2c5c31)C(=O)NC4` [staurosporine], the caspase-3 activity result in test [5] was “significantly increased signal”.
